The subject of one data set is SMAD3 phosphorylation. The data set is described as follows: pSMAD3/SMAD3 in lung tissue and BALF of healthy mice. It is filed as in vivo. Conditions: 4 days of treatment, dose dependent. An excerpt: It has been previously shown that inhibition of αVβ6 in the lung can be detected though measurement of phospho-SMAD (pSMAD) in alveolar macrophages. Alveolar macrophages are known to operate in a unique niche in the lung, distinct from interstitial macrophages. SMAD3 is a downstream target of the active TGF-β cytokine binding its receptor and in alveolar macrophages it is phosphorylated by homoeostatic levels of TGF-β. Accordingly, it was desirable to know whether inhibition of TGF-β activation using the disclosed compounds would result in reduced SMAD2 and SMAD3 phosphorylation.
FIG. 2A is a graph of PSMAD3/SMAD3 in lung tissue from healthy mice administered PBS vehicle and varying levels of compound 5 for 4 days. FIG. 2B is a graph of PSMAD3/SMAD3 in BALF drawn from the same healthy mice administered PBS vehicle and varying levels of compound 5 for 4 days.

The next data set relates to pSMAD2:SMAD2 ratio. Description: pSMAD2:SMAD2 ratio in BAL of healthy subjects (20 or 40 mg daily). It is filed as in vivo, human. Conditions: all subjects with Cmax above 700 ng/mL; Day 7; FIG. 6G. As to the method:
In order to evaluate the change of pSMAD2 as a biomarker of TGF-β activity following administration of an integrin inhibitor, and to determine a therapeutically effective dosage and an effective blood plasma Cmax of the integrin inhibitor, healthy subjects were administered compound 5, a dual selective αVβ6/αVβ1-integrin inhibitor, and the corresponding Cmax levels and decrease in phosphorylation levels and were determined.
Healthy non-smoking adult males without history of lung disease were selected as subjects and were randomized into 4 cohorts. Broncoalevaolar lavage samples were obtained from all subjects 1 day prior to start of treatment. Cohorts 1 and 2 were administered 20 mg of a compound daily, wherein 3 subjects were administered the dual selective αVβ6/αVβ1-integrin inhibitor (compound 5) per every 1 subject receiving a placebo compound. Cohorts 3 and 4 were administered 40 mg of a compound daily, wherein 3 subjects were administered the dual selective αVβ6/αVβ1-integrin inhibitor (compound 5) per every 1 subject receiving a placebo compound. BAL samples and blood samples were taken from all subjects on Day −1 (baseline) and on Day 7 (end of treatment).

The next data set relates to PRO-C3 and PRO-C6. Description: Phase 2a trial in IPF, serum biomarkers of collagen synthesis. It is filed as in vivo, human. As to conditions: IPF participants. The text has this:
FIG. 27 (PRO—C3 Type III collagen synthesis neoepitope) and FIG. 28 (PRO—C6 TypeVI collagen synthesis neoepitope) compare serum biomarkers of collagen synthesis in Compound 5 groups versus placebo groups. Compound 5 decreased serum biomarkers of collagen synthesis relative to placebo. […] LS=Least Squares, SEM=Standard Error of Mean.

Data set [1] in a line: Phase 2a trial in IPF, pharmacokinetics. It is filed as in vivo, human. The text has this: Overall Summary of Safety Pharmacokinetics.
A short description of data set [2]: SAD/MAD first-in-human pharmacokinetics. It is filed as in vivo. Conditions: healthy subjects. As to the method: Healthy human subjects (N=85) were selected for single ascending dose (SAD) and multiple ascending dose (MAD) first-in-human studies. A solution for oral administration was prepared, containing 10 mg/mL of compound 5 in a 50:50 mixture of ORA-SWEET® SF (PERRIGO®, Allegan, Michigan) and sterile water for irrigation. Sufficient solution was administered orally to the subjects to provide between 15 mg/dose and 75 mg/dose of compound 5 in the SAD study and between 10 mg/dose and 40 mg/dose of compound 5 in the MAD study. Concentrations of compound 5 were measured in the subjects by obtaining a sample of plasma from each subject at desired intervals, and subjecting the plasma to liquid chromatography-mass spectrometry-mass spectrometry (LC-MS/MS), with quantification using a calibration curve determined from a range of solutions at standardized concentrations. The lower limit of quantitation (LLOQ) of the assay was 1 ng/mL and the calibration curve range was 1 to 500 ng/mL.

Data set [3] can be described thus: Phase 2a trial in IPF, safety and tolerability. It is filed as in vivo, human.
Data set [4] deals with IPF-derived human lung fibroblasts. The data set is described as follows: LAP adhesion assay, IPF-derived human lung fibroblasts (express αVβ1). It is filed as cell-based. As to conditions: LAP-coated plates, cell index, xCELLigence; FIG. 1B. How it is done: Two latency associated peptide (LAP) adhesion binding assays were devised using primary human lung cells, including normal (healthy) human bronchial epithelial cells and human lung fibroblasts (healthy and IPF).
Human lung fibroblasts derived from normal and IPF lung tissue are known to express αVβ1 integrin. The IPF-derived human lung fibroblasts were prepared for the assay by dissociation with trypsin/EDTA, and were seeded at 20,000 cells per well on 96 well plates (ACEA Bioscience E-plate View, Acea Biosciences; San Diego, CA) previously coated with 5 µg/ml of recombinant human LAP (R&D Systems; Minneapolis, MN) and blocked with 4% bovine serum albumin. Cell index (electrical impedance) was measured to assess cell attachment/spreading every 3 minutes for 24 hours at 37° C./5% CO2 using the xCELLigence RTCA MP Instrument (Acea Biosciences; San Diego, CA). […] In the assay, the IPF-derived human lung fibroblasts were separately incubated with: the αVβ1-selective small molecule inhibitor; the selective antibody αVβ6 inhibitor, 3G9; and compound 5.

Data set [5] can be described thus: Unbound plasma concentration in the PET study. It is filed as in vivo, human. Conditions: IPF. As to the method: This Example was conducted as an open-label, single-dose (60 mg, 120 mg, 240 mg or 320 mg) clinical trial evaluating αVβ6 receptor occupancy in the lungs, safety, and pharmacokinetics of Compound 5 in subjects with IPF. Knottin tracer uptake kinetics were compared pre- and post-dose of the disclosed compound, as measured by standardized uptake values (SUVs) and parameters estimated from kinetic modeling in regions-of-interest on dynamic [^18F]FP-R01-MG-F2 PET/CT scans. […] Receptor occupancy was estimated from the output of the two-compartment model (VT, the volume of labeled tissue) using standard equations and fitting algorithms, and corrections for VND (non-displaceable tracer binding). For example, in FIG. 8, the data points, shown as circles, are modeled by the following formula: […]
Five subjects with IPF were enrolled: Subject A received a single dose of 60 mg of the disclosed compound followed by a post-dose scan. Subject B received two doses of the disclosed compound separated by two weeks, 120 mg and 240 mg, each followed by a post-dose scan. Subject C received two doses of the disclosed compound separated by two weeks, 240 mg and 320 mg, each followed by a post-dose scan. Subject D received a single dose of 320 mg of the disclosed compound followed by a post-dose scan.

Where [6] appears, read: of the 67 patients treated with Compound 5.

Entries after “also recorded” stand apart in the source; their conditions may differ. Bounds are passed on as bounds.

As to `COCCN(CCCCc1ccc2c(n1)NCCC2)CC[C@H](Nc1ncnc2ccccc12)C(=O)O` [Compound 5, (S)-4-((2-methoxyethyl)(4-(5,6,7,8-tetrahydro-1,8-naphthyridin-2-yl)butyl)amino)-2-(quinazolin-4-ylamino)butanoic acid], in the data set with SMAD3 phosphorylation (FIG. 2A), the “SMAD3 phosphorylation (PSMAD3/SMAD3) in lung tissue” value is reported as “approximately 50 % of the untreated levels”. Also, the “SMAD3 phosphorylation (PSMAD3/SMAD3) in cells isolated from BALF” value with SMAD3 phosphorylation (FIG. 2B) was “approximately 50 % of the untreated levels”. In the data set on pSMAD2:SMAD2 ratio, the “reduction in pSMAD2:SMAD2 ratio in BAL compared to the placebo group” value is not below 50%. Moreover, the “change from baseline of serum PRO-C3 (type III collagen synthesis) vs. placebo” value in the data set with PRO-C3 and PRO-C6 (FIG. 27) is “decreased; also recorded: reduced in participants receiving Compound 5 vs. placebo (not significant)”. For the same compound, in the data set with PRO-C3 and PRO-C6 (FIG. 28), the “change from baseline of serum PRO-C6 (type VI collagen synthesis) vs. placebo” value is on record as “decreased; also recorded: reduced in participants receiving Compound 5 vs. placebo (not significant)”. Besides, the “dose proportionality of plasma concentrations” value in data set [1] (IPF participants, 40-160 mg QD, sparse sampling) was “generally dose proportional increases; also recorded: increased approximately proportionally with dose”. Also, the pharmacokinetic profile result in data set [1] (IPF patients, 12-week treatment) is reported as “favorable pharmacokinetic profile”. For the same compound, the “oral bioavailability and pharmacokinetics” value in data set [2] is “good oral bioavailability and pharmacokinetics”. In data set [3] (12 weeks, 40-160 mg QD), the “discontinuations due to adverse events” value is on record as “no discontinuations due to adverse events; also recorded: No premature discontinuations due to AEs; also recorded: no participants discontinued Compound 5 due to TEAE”, the “most frequent TEAE” value is “diarrhea but only seen in patients on standard of care”, the “severity of most treatment emergent adverse events (TEAE)” value is “mild or moderate in severity” and the “treatment related deaths or drug related serious adverse events (SAE)” value is recorded as “No treatment related deaths or drug related serious adverse events (SAE) were reported; also recorded: No deaths or drug-related SAEs; also recorded: no treatment-emergent serious adverse events (SAEs) were observed; also recorded: no treatment related SAEs or deaths”. In addition, in data set [3] (IPF patients, 40, 80, 160 mg once daily, 12 weeks), the tolerability result is “safe and well tolerated”. Besides, in data set [3] (setting [6]), the “patients who completed 12 weeks of treatment, number” value was 65 and the “patients who completed 12 weeks of treatment, proportion” value was found to be 97%. The “inhibition of cell adhesion in the IPF-derived lung fibroblasts” value in data set [4] is given as “substantially inhibited”. In data set [5] (Subject A, single 60 mg dose), the “Conc (Unbound Plasma Concentration)” value is recorded as 3.66 nM. The “Conc (Unbound Plasma Concentration)” value in data set [5] (Subject B, 120 mg dose) came out at 10 nM. Moreover, in data set [5] (Subject B, 240 mg dose two weeks after 120 mg), the “Conc (Unbound Plasma Concentration)” value came out at 58.3 nM. The “Conc (Unbound Plasma Concentration)” value in data set [5] (Subject C, 240 mg dose) was 103 nM. Further, in data set [5] (Subject D, single 320 mg dose), the “Conc (Unbound Plasma Concentration)” value amounted to 33.6 nM.

The record behind these values is patent US20240350494A1, “THERAPEUTIC MODULATION OF INTEGRINS” (Pliant Therapeutics, Inc., priority 2021, published 2024).
